# Experimental data as given in US11802111B2, “Cyclobutyl amide monoacylglycerol lipase modulators” (Janssen Pharmaceutica NV, priority 2020, dated 2023).
# pIC50: −log10 of the molar value.
# Biological target: human MGL from HeLa cells (Homo sapiens (Human), UniProt Q99685)
# Assay: MGL in vitro activity assay ([glycerol-1,3-3H]-oleoyl glycerol hydrolysis, activated carbon filtration)
# Assay type: biochemical
# Settings: 300 nM [Glycerol-1,3-3H]-oleoyl glycerol, one hour
# Procedure, shortened: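 Activity measured as tritium in the flow-through after activated carbon filtration of a 1 h reaction containing 300 nM 3H-oleoyl glycerol, compound and HeLa-derived human MGL. Compounds screened at 10 μM; IC50 series start at an empirically chosen highest concentration.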
# Sequence of human MGL from HeLa cells (Q99685 whole entry): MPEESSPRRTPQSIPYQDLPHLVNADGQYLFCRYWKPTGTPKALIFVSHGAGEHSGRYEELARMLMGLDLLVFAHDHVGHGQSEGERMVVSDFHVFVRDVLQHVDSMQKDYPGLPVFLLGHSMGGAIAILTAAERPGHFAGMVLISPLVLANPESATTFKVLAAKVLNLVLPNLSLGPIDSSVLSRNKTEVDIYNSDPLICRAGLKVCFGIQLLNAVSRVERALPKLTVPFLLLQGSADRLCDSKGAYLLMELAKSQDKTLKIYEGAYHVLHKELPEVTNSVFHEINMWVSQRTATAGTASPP
row,Structure (SMILES),pIC50
1,"Cc1cc(F)ccc1C1CCC2(CC1)CN(C(=O)[C@H]1C[C@@](C)(O)C1)C2 [Example 357, (7-(4-Fluoro-2-methylphenyl)-2-azaspiro[3.5]nonan-2-yl)((1s,3s)-3-hydroxy-3-methylcyclobutyl)methanone]",7.54
2,"Cc1ccc(F)cc1C1CCC2(CC1)CN(C(=O)[C@H]1C[C@@](C)(O)C1)C2 [Example 358, (7-(5-Fluoro-2-methylphenyl)-2-azaspiro[3.5]nonan-2-yl)((1s,3s)-3-hydroxy-3-methylcyclobutyl)methanone]",7.54
3,"Cc1c(F)cccc1C1CCC2(CC1)CN(C(=O)[C@H]1C[C@@](C)(O)C1)C2 [Example 359, (7-(3-Fluoro-2-methylphenyl)-2-azaspiro[3.5]nonan-2-yl)((1s,3s)-3-hydroxy-3-methylcyclobutyl)methanone]",7.74
4,"CCOc1cc(C2CCC3(CC2)CN(C(=O)[C@H]2C[C@@](C)(O)C2)C3)ccc1C [Example 360, (7-(3-Ethoxy-4-methylphenyl)-2-azaspiro[3.5]nonan-2-yl)((1s,3s)-3-hydroxy-3-methylcyclobutyl)methanone]",7.44
5,"CCOc1cccc(C2CCC3(CC2)CN(C(=O)[C@H]2C[C@@](C)(O)C2)C3)c1C [Example 361, (7-(3-Ethoxy-2-methylphenyl)-2-azaspiro[3.5]nonan-2-yl)((1s,3s)-3-hydroxy-3-methylcyclobutyl)methanone]",8.74
6,"Cc1c(OC(C)C)cccc1C1CCC2(CC1)CN(C(=O)[C@H]1C[C@@](C)(O)C1)C2 [Example 362, ((1s,3s)-3-Hydroxy-3-methylcyclobutyl)(7-(3-isopropoxy-2-methylphenyl)-2-azaspiro[3.5]nonan-2-yl)methanone]",8.82
7,"COc1ccc(C)c(C2CCC3(CC2)CN(C(=O)[C@H]2C[C@@](C)(O)C2)C3)c1 [Example 363, ((1s,3s)-3-Hydroxy-3-methylcyclobutyl)(7-(5-methoxy-2-methylphenyl)-2-azaspiro[3.5]nonan-2-yl)methanone]",6.79
8,"Cc1c(OC2CC2)cccc1C1CCC2(CC1)CN(C(=O)[C@H]1C[C@@](C)(O)C1)C2 [Example 364, (7-(3-Cyclopropoxy-2-methylphenyl)-2-azaspiro[3.5]nonan-2-yl)((1s,3s)-3-hydroxy-3-methylcyclobutyl)methanone]",8.54
9,"CCOc1cc(F)cc(C2CCC3(CC2)CN(C(=O)[C@H]2C[C@@](C)(O)C2)C3)c1 [Example 365, (7-(3-Ethoxy-5-fluorophenyl)-2-azaspiro[3.5]nonan-2-yl)((1s,3s)-3-hydroxy-3-methylcyclobutyl)methanone]",7.66
10,"COc1cccc(C2CCC3(CC2)CN(C(=O)[C@H]2C[C@@](C)(O)C2)C3)c1F [Example 366, (7-(2-Fluoro-3-methoxyphenyl)-2-azaspiro[3.5]nonan-2-yl)((1s,3s)-3-hydroxy-3-methylcyclobutyl)methanone]",7.30
11,"COc1cccc(C2CCC3(CC2)CN(C(=O)[C@H]2C[C@@](C)(O)C2)C3)c1Cl [Example 367, (7-(2-Chloro-3-methoxyphenyl)-2-azaspiro[3.5]nonan-2-yl)((1s,3s)-3-hydroxy-3-methylcyclobutyl)methanone]",7.40
12,"COc1cc(F)c(F)c(C2CCC3(CC2)CN(C(=O)[C@H]2C[C@@](C)(O)C2)C3)c1 [Example 368, (7-(2,3-Difluoro-5-methoxyphenyl)-2-azaspiro[3.5]nonan-2-yl)((1s,3s)-3-hydroxy-3-methylcyclobutyl)methanone]",7.23
13,"COc1cc(F)cc(C2CCC3(CC2)CN(C(=O)[C@H]2C[C@@](C)(O)C2)C3)c1F [Example 369, (7-(2,5-Difluoro-3-methoxyphenyl)-2-azaspiro[3.5]nonan-2-yl)((1s,3s)-3-hydroxy-3-methylcyclobutyl)methanone]",7.46
14,"COc1cc(C2CCC3(CC2)CN(C(=O)[C@H]2C[C@@](C)(O)C2)C3)cc(F)c1C [Example 370, (7-(3-Fluoro-5-methoxy-4-methylphenyl)-2-azaspiro[3.5]nonan-2-yl)((1s,3s)-3-hydroxy-3-methylcyclobutyl)methanone]",7.96
15,"C[C@]1(O)C[C@@H](C(=O)N2CC3(CCC(c4cccc(C5(C(F)(F)F)CC5)n4)CC3)C2)C1 [Example 371, ((1s,3s)-3-Hydroxy-3-methylcyclobutyl)(7-(6-(1-(trifluoromethyl)cyclopropyl)pyridin-2-yl)-2-azaspiro[3.5]nonan-2-yl)methanone]",8.19
16,"CC1(c2cccc(C3CCC4(CC3)CN(C(=O)[C@H]3C[C@@](C)(O)C3)C4)n2)CC1 [Example 372, ((1s,3s)-3-Hydroxy-3-methylcyclobutyl)(7-(6-(1-methylcyclopropyl)pyridin-2-yl)-2-azaspiro[3.5]nonan-2-yl)methanone]",8.29
17,"Cc1ccc(C2CCC3(CC2)CN(C(=O)[C@H]2C[C@@](C)(O)C2)C3)nc1C(C)C [Example 373, ((1s,3s)-3-Hydroxy-3-methylcyclobutyl)(7-(6-isopropyl-5-methylpyridin-2-yl)-2-azaspiro[3.5]nonan-2-yl)methanone]",8.62
18,"Cc1cc(OC(C)C)nc(C2CCC3(CC2)CN(C(=O)[C@H]2C[C@@](C)(O)C2)C3)c1 [Example 374, ((1s,3s)-3-Hydroxy-3-methylcyclobutyl)(7-(6-isopropoxy-4-methylpyridin-2-yl)-2-azaspiro[3.5]nonan-2-yl)methanone]",8.03
19,"COc1cc(C)nc(C2CCC3(CC2)CN(C(=O)[C@H]2C[C@@](C)(O)C2)C3)c1 [Example 375, ((1s,3s)-3-Hydroxy-3-methylcyclobutyl)(7-(4-methoxy-6-methylpyridin-2-yl)-2-azaspiro[3.5]nonan-2-yl)methanone]",6.64
20,"Cc1c(C2CCC3(CC2)CN(C(=O)[C@H]2C[C@@](C)(O)C2)C3)ccnc1OC(C)C [Example 376, ((1s,3s)-3-Hydroxy-3-methylcyclobutyl)(7-(2-isopropoxy-3-methylpyridin-4-yl)-2-azaspiro[3.5]nonan-2-yl)methanone]",7.77
21,"CC(C)(C)c1cncc(C2CCC3(CC2)CN(C(=O)[C@H]2C[C@@](C)(O)C2)C3)n1 [Example 377, (7-(6-(tert-Butyl)pyrazin-2-yl)-2-azaspiro[3.5]nonan-2-yl)((1s,3s)-3-hydroxy-3-methylcyclobutyl)methanone]",7.09
22,"CC(C)(C)c1ccnc(C2CCC3(CC2)CN(C(=O)[C@H]2C[C@@](C)(O)C2)C3)n1 [Example 378, (7-(4-(tert-Butyl)pyrimidin-2-yl)-2-azaspiro[3.5]nonan-2-yl)((1s,3s)-3-hydroxy-3-methylcyclobutyl)methanone]",7.43

# The next lines start with the values.
row,pIC50,Structure (SMILES)
1,7.25,"CC(C)(C)n1ccc(C2CCC3(CC2)CN(C(=O)[C@H]2C[C@@](C)(O)C2)C3)n1 [Example 379, (7-(1-(tert-Butyl)-1H-pyrazol-3-yl)-2-azaspiro[3.5]nonan-2-yl)((1s,3s)-3-hydroxy-3-methylcyclobutyl)methanone]"
2,7.64,"C[C@]1(O)C[C@@H](C(=O)N2CC3(CCC(c4ccn(-c5ccccc5)n4)CC3)C2)C1 [Example 380, ((1s,3s)-3-Hydroxy-3-methylcyclobutyl)(7-(1-phenyl-1H-pyrazol-3-yl)-2-azaspiro[3.5]nonan-2-yl)methanone]"
3,5.86,"CC(C)(C)n1cnc(C2CCC3(CC2)CN(C(=O)[C@H]2C[C@@](C)(O)C2)C3)c1 [Example 381, (7-(1-(tert-Butyl)-1H-imidazol-4-yl)-2-azaspiro[3.5]nonan-2-yl)((1s,3s)-3-hydroxy-3-methylcyclobutyl)methanone]"
4,6.75,"CC(C)(C)c1cc(C2CCC3(CC2)CN(C(=O)[C@H]2C[C@@](C)(O)C2)C3)on1 [Example 382, (7-(3-(tert-Butyl)isoxazol-5-yl)-2-azaspiro[3.5]nonan-2-yl)((1s,3s)-3-hydroxy-3-methylcyclobutyl)methanone]"
5,6.74,"Cn1cc(C2CCC3(CC2)CN(C(=O)[C@H]2C[C@@](C)(O)C2)C3)c2cccnc21 [Example 383, ((1s,3s)-3-Hydroxy-3-methylcyclobutyl)(7-(1-methyl-1H-pyrrolo[2,3-b]pyridin-3-yl)-2-azaspiro[3.5]nonan-2-yl)methanone]"
6,7.01,"Cn1ccc2ccc(C3CCC4(CC3)CN(C(=O)[C@H]3C[C@@](C)(O)C3)C4)nc21 [Example 384, ((1s,3s)-3-Hydroxy-3-methylcyclobutyl)(7-(1-methyl-1H-pyrrolo[2,3-b]pyridin-6-yl)-2-azaspiro[3.5]nonan-2-yl)methanone]"
7,7.52,"CC(C)n1ccc2ccc(C3CCC4(CC3)CN(C(=O)[C@H]3C[C@@](C)(O)C3)C4)nc21 [Example 385, ((1s,3s)-3-Hydroxy-3-methylcyclobutyl)(7-(1-isopropyl-1H-pyrrolo[2,3-b]pyridin-6-yl)-2-azaspiro[3.5]nonan-2-yl)methanone]"
8,7.72,"Cn1cc(C(F)(F)F)c2ccc(C3CCC4(CC3)CN(C(=O)[C@H]3C[C@@](C)(O)C3)C4)nc21 [Example 386, ((1s,3s)-3-Hydroxy-3-methylcyclobutyl)(7-(1-methyl-3-(trifluoromethyl)-1H-pyrrolo[2,3-b]pyridin-6-yl)-2-azaspiro[3.5]nonan-2-yl)methanone]"
9,7.17,"C[C@]1(O)C[C@@H](C(=O)N2CC3(CCC(c4ccc5ccn(CC(F)(F)F)c5n4)CC3)C2)C1 [Example 387, ((1s,3s)-3-Hydroxy-3-methylcyclobutyl)(7-(1-(2,2,2-trifluoroethyl)-1H-pyrrolo[2,3-b]pyridin-6-yl)-2-azaspiro[3.5]nonan-2-yl)methanone]"
10,6.70,"C[C@]1(O)C[C@@H](C(=O)N2CC3(CCC(c4cc5ccccn5n4)CC3)C2)C1 [Example 388, ((1s,3s)-3-Hydroxy-3-methylcyclobutyl)(7-(pyrazolo[1,5-c]pyridin-2-yl)-2-azaspiro[3.5]nonan-2-yl)methanone]"
11,7.00,"C[C@]1(O)C[C@@H](C(=O)N2CC3(CCC(c4cccc5ccnn45)CC3)C2)C1 [Example 389, ((1s,3s)-3-Hydroxy-3-methylcyclobutyl)(7-(pyrazolo[1,5-a]pyridin-7-yl)-2-azaspiro[3.5]nonan-2-yl)methanone]"
12,6.14,C[C@]1(O)C[C@@H](C(=O)N2CC3(CCC(c4cccc5nccn45)CC3)C2)C1 [Example 390]
